The subject of data set [1] is Septoria tritici. The data set can be described thus: In vitro test for ED50 values, liquid culture, Septoria tritici. Conditions: inhibition of spore germination and mycelium growth, 4 to 7 days incubation. In kind it is cell-based. The source says: (§1) Example E: In Vitro Test for the Calculation of ED50-Values; Comparison of Compounds According to the Invention Vs. Compounds Encompassed by WO 2010/146116 A1
(§2) • Solvent: DMSO • Culture medium: 14.6 g anhydrous D-glucose (VWR), 7.1 g Mycological Peptone (Oxoid), 1.4 g granulated Yeast Extract (Merck) per 1 liter water • Inoculum: spore suspension
(§3) Fungicides were solubilized in DMSO and the resulting solutions used to prepare test solutions of different fungicide concentrations in the required range. The final concentration of DMSO used in the assay was <1% by volume.
(§4) A spore suspension was prepared and diluted to the desired spore density.
(§5) Fungicides were evaluated for their ability to inhibit spore germination and mycelium growth in liquid culture assay. The compounds were added in the desired concentration to the culture medium with spores. After 4 to 7 days incubation, fungi-toxicity of compounds was determined by spectrometric measurement of mycelium growth. Inhibition of fungal growth was determined by comparing the absorbance values in wells containing the fungicides with the absorbance in control wells without fungicides.

The test system of the next data set is Pyricularia oryzae. In kind it is cell-based. As to conditions: inhibition of spore germination and mycelium growth, liquid culture, 4 to 7 days incubation.
The subject of another data set is Botrytis cinerea. The data set is described as follows: In vitro test for ED50 values, liquid culture, Botrytis cinerea. It counts as cell-based. Conditions: inhibition of spore germination and mycelium growth, 4 to 7 days incubation.
Excerpt: as §1, §2, §3, §4, §5

Another data set is described as follows: physchem. Conditions: reversed phase HPLC column.
The next data set relates to Sphaerotheca fuliginea. Conditions: 500 ppm of active ingredient; preventive spray on young gherkin plants; evaluated 15 days after inoculation.
The subject of the next data set is Alternaria alternata. The data set is described as follows: In vitro test for ED50 values, liquid culture, Alternaria alternata. As to conditions: inhibition of spore germination and mycelium growth, 4 to 7 days incubation. It counts as cell-based.
Excerpt: as §1, §2, §3, §4, §5

The next data set has as its system Puccinia recondita. As to conditions: 500 ppm of active ingredient; preventive spray on young wheat plants; evaluated 11 days after inoculation.
A further data set deals with Uromyces appendiculatus. Conditions: 500 ppm of active ingredient; preventive spray on young bean plants; evaluated 11 days after inoculation.
For data set [2], the system named is Septoria tritici. Conditions: 500 ppm of active ingredient; preventive spray on young wheat plants; evaluated 24 days after inoculation.
Protocol: (§6) • Solvent: 5% by volume of Dimethyl sulfoxide • 10% by volume of Acetone • Emulsifier: 1 μl of Tween® 80 per mg of active ingredient
(§7) The active ingredients are made soluble and homogenized in a mixture of Dimethyl sulfoxide/Acetone/Tween® 80 and then diluted in water to the desired concentration.
(§8) Control plants are treated only with an aqueous solution of Acetone/Dimethyl sulfoxide/Tween® 80.
After 24 hours, the plants are contaminated by spraying the leaves with an aqueous suspension of Septoria tritici spores. The contaminated wheat plants are incubated for 72 hours at 18° C. and at 100% relative humidity and then for 21 days at 20° C. and at 90% relative humidity.
The test is evaluated 24 days after the inoculation.

Here are results for 4 compounds from patent US20190281828A1 (priority 2016, published 2019).

By chromatographic logP is commonly meant a lipophilicity value derived from retention on a column. A low value points to a more hydrophilic compound.

SMILES strings stand for the structures.

Protocol for Puccinia recondita: Example A: In Vivo Preventive Test on Puccinia recondita (Brown Rust on Wheat)
as §6, §7, §8
After 24 hours, the plants are contaminated by spraying the leaves with an aqueous suspension of Puccinia recondita spores. The contaminated wheat plants are incubated for 24 hours at 20° C. and at 100% relative humidity and then for 10 days at 20° C. and at 70-80% relative humidity.
(§9) The test is evaluated 11 days after the inoculation.
Protocol for Sphaerotheca fuliginea: Example C: In Vivo Preventive Test on Sphaerotheca fuliginea (Powdery Mildew on Cucurbits)
as §6, §7, §8
After 24 hours, the plants are contaminated by spraying the leaves with an aqueous suspension of Sphaerotheca fuliginea spores. The contaminated gherkin plants are incubated for 72 hours at 18° C. and at 100% relative humidity and then for 12 days at 20° C. and at 70-80% relative humidity.
The test is evaluated 15 days after the inoculation.
Protocol for Uromyces appendiculatus: as §6, §7, §8
After 24 hours, the plants are contaminated by spraying the leaves with an aqueous suspension of Uromyces appendiculatus spores. The contaminated bean plants are incubated for 24 hours at 20° C. and at 100% relative humidity and then for 10 days at 20° C. and at 70-80% relative humidity.
as §9
Excerpt for physchem: Calibration was done with straight-chain alkan2-ones (with 3 to 16 carbon atoms) with known Log P values (measurement of Log P values using retention times with linear interpolation between successive alkanones).

For `CC1COC(Cn2cncn2)(c2ccc(Oc3ccc(Cl)cc3)nc2Cl)O1` (stereo not drawn) [I.02], the “Septoria tritici ED50 value in ppm” value with Septoria tritici [1] came out at 0.008 ppm. In the data set on Pyricularia oryzae, the “Pyricularia oryzae ED50 value in ppm” value was 1.2 ppm. Also, the “Botrytis cinerea ED50 value in ppm” value in the data set on Botrytis cinerea is reported as 2.7 ppm.

The compound `Clc1ccc(Oc2ccc(C3(Cn4cncn4)OCCO3)c(Cl)n2)cc1` [I.01, 2-chloro-6-(4-chlorophenoxy)-3-[2-(1,2,4-triazol-1-ylmethyl)-1,3-dioxolan-2-yl]pyridine] yielded a chromatographic logP in “physchem” of 2.86. The “Pyricularia oryzae ED50 value in ppm” value in the data set with Pyricularia oryzae was found to be 0.56 ppm. Besides, the efficacy result with Sphaerotheca fuliginea, in the data set with Puccinia recondita, with Uromyces appendiculatus and in the data set with Septoria tritici [2] was “at least 70%” throughout. The “Alternaria alternata ED50 value in ppm” value in the data set on Alternaria alternata was determined as 0.12 ppm.

Consider `CC1COC(Cn2cncn2)(c2cnc(Oc3ccc(Cl)cc3)cc2Cl)O1` (stereo not drawn) [reference compound], for which the “Septoria tritici ED50 value in ppm” value in the data set with Septoria tritici [1] came to 0.013 ppm. For the same compound, the “Pyricularia oryzae ED50 value in ppm” value with Pyricularia oryzae is listed as 9.5 ppm. The “Botrytis cinerea ED50 value in ppm” value in the data set on Botrytis cinerea came out at 8.9 ppm.

As to `Clc1ccc(Oc2cc(Cl)c(C3(Cn4cncn4)OCCO3)cn2)cc1` [reference compound], the “Pyricularia oryzae ED50 value in ppm” value in the data set with Pyricularia oryzae turned out to be 1.3 ppm. Besides, the “Alternaria alternata ED50 value in ppm” value in the data set on Alternaria alternata was determined as 0.5 ppm.
